Measured values: patent US8829029B2, “Dual modulators of 5HT2A and D3 receptors” (Hoffmann-La Roche Inc., priority 2008, dated 2014)

Assays:
[1] = target: human D3 dopamine receptor (Homo sapiens (Human), UniProt P35462); test: Radioligand binding ([3H]-spiperone) to cloned human D3 receptor expressed in HEK-293 EBNA cells; conditions: membranes of transfected HEK-293 EBNA cells, 0.5 nM [3H]-spiperone, 1 h at RT
Method: HEK-293 EBNA cells were transiently transfected with expression plasmids encoding for the human D2 or D3 dopamine- or for the human 5-HT2A serotonin receptor, respectively. The cells were harvested 48 h post-transfection, washed three times with cold PBS and stored at −80° C. prior to use. […] After centrifugation at 48,000×g for 30 min at 4° C., the pellet was resuspended in cold 10 mM Tris-HCl buffer containing 0.1 mM EDTA (pH 7.4), homogenized, and centrifuged as above. […] The protein content of this homogenate was determined with the Bio-Rad (Bradford) Protein Assay (Biorad Laboratories GmbH, München, Germany) according to the instructions of the manufacturer using gamma globulin as the standard. This homogenate was stored at −80° C. in aliquots and thawed immediately prior to use.
(§1) The binding affinity (Ki) of the compounds was determined using radioligand binding. Membranes were incubated in a total volume of 200 μl with a fixed concentration of radioligand (final concentration approximately 0.7 nM [^3H]-spiperone for D2, 0.5 nM [^3H]-spiperone for D3, and 1.1 nM [^3H]-ketanserin for 5-HT2A) and ten concentrations of test compound in ranging between 10 μM-0.1 nM for 1 h at RT. At the end of the incubation, the reaction mixtures were filtered on to unifilter 96-well white microplates with bonded GF/C filters (Packard BioScience, Zürich, Switzerland; preincubated for 1 h in 0.1% polyethylenimine (PEI) in assay buffer) with a Filtermate 196 harvester (Packard BioScience) and washed 3 times with cold assay buffer. The nonspecific binding was determined with equally composed reaction mixtures in the presence of 10 μM unlabelled spiperone. Per well 45 μl of Microscint 40 (Perkin Elmer, Schwerzenbach, Switzerland) was added, plates for sealed, shaken for 20 min and counted for 3 min on a Topcount Microplate Scintillation Counter (Canberra Packard SA, Zürich, Switzerland) with quenching correction.
(§2) The CPM value for each duplicate of a concentration of competing compound was averaged (y1), then the % specific binding was calculated according to the equation (((y1−non-specific)/(total binding−non-specific))×100). Graphs were plotted with the % specific binding using XLfit, a curve fitting program that iteratively plots the data using Levenburg Marquardt algorithm. The single site competition analysis equation used was y=A+((B−A)/(1+((x/C)^D))), where y is the % specific binding, A is the minimum y, B is the maximum y, C is the IC50, x is the log10 of the concentration of the competing compound and D is the slope of the curve (the Hill Coefficient). From these curves the IC50 (inhibition concentration at which 50% specific binding of the radioligand was displaced) and Hill coefficient were determined. The affinity constant (Ki) was calculated using the Cheng-Prusoff equation Ki=(IC50/1+([L]/Kd), where [L] is the concentration of radioligand and Kd is the dissociation constant of the radioligand at the receptor as determined by the saturation isotherm.

[2] = target: human 5-HT2A serotonin receptor (Homo sapiens (Human), UniProt P28223); test: Radioligand binding ([3H]-ketanserin) to cloned human 5-HT2A receptor expressed in HEK-293 EBNA cells; conditions: membranes of transfected HEK-293 EBNA cells, 1.1 nM [3H]-ketanserin, 1 h at RT
Method: The ability of the compounds to bind to the 5-HT2A, D3 and D2 receptors was determined using radioligand binding to cloned receptors selectively expressed in HEK-293 EBNA cells.
HEK-293 EBNA cells were transiently transfected with expression plasmids encoding for the human D2 or D3 dopamine- or for the human 5-HT2A serotonin receptor, respectively. The cells were harvested 48 h post-transfection, washed three times with cold PBS and stored at −80° C. prior to use. The pellet was suspended in cold 50 mM Tris-HCl buffer containing 10 mM EDTA (pH 7.4) and homogenized with a Polytron (Kinematica AG, Basel, Switzerland) for 20-30 sec at 12,000 rpm. After centrifugation at 48,000×g for 30 min at 4° C., the pellet was resuspended in cold 10 mM Tris-HCl buffer containing 0.1 mM EDTA (pH 7.4), homogenized, and centrifuged as above. This pellet was further resuspended in a smaller volume of ice cold 10 mM Tris-HCl buffer containing 0.1 mM EDTA (pH 7.4) and homogenized with a Polytron for 20-30 sec at 12,000 rpm. The protein content of this homogenate was determined with the Bio-Rad (Bradford) Protein Assay (Biorad Laboratories GmbH, München, Germany) according to the instructions of the manufacturer using gamma globulin as the standard. This homogenate was stored at −80° C. in aliquots and thawed immediately prior to use.
Aliquots of membrane preparations were thawed at RT, resuspended in assay buffer (D2, D3: 50 mM Tris-HCl, 120 mM NaCl, 5 mM MgCl2, 1 mM EDTA, 5 mM KCl, 1.5 mM CaCl2, pH=7.4; 5-HT2A: 50 mM Tris-HCl, 10 mM MgCl2, 1 mM EGTA, pH=7.4), homogenized with a Polytron for 20-30 sec at 12,000 rpm and adjusted to a final concentration of approximately 7.5 μg protein/well (D2, D3) and 15 μg protein/well (5-HT2A), respectively.
as §1, §2

Chain of human D3 dopamine receptor (P35462 whole entry): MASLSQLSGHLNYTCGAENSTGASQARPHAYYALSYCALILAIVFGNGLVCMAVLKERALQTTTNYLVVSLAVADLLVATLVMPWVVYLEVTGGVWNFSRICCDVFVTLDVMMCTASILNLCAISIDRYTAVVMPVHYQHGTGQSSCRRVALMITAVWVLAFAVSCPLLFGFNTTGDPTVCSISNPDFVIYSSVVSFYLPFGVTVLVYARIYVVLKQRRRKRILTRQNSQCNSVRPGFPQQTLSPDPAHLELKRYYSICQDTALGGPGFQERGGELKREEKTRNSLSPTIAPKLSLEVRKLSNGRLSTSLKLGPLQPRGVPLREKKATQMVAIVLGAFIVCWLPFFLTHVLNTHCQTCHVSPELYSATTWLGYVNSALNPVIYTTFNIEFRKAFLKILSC

Compound	Ki [1] [nM]	Ki [2] [nM]
O=C(CC1CCCO1)N[C@H]1CC[C@H](CCN2CCC(c3noc4cc(Cl)ccc34)CC2)CC1 (stereo partly drawn) [Example 38, N-trans-(4-{2-[4-(6-Chloro-benzo[d]isoxazol-3-yl)-piperidin-1-yl]-ethyl}-cyclohexyl)-2-(tetrahydro-furan-2-yl)-acetamide]	9	13
C[C@@H](O)CC(=O)N[C@H]1CC[C@H](CCN2CCC(c3noc4cc(Cl)ccc34)CC2)CC1 [Example 39, (R)-N-trans (4-{2-[4-(6-Chloro-benzo[d]isoxazol-3-yl)-piperidin-1-yl]-ethyl}-cyclohexyl)-3-hydroxy-butyramide]	17	13
CC1(C)OC[C@H](CC(=O)N[C@H]2CC[C@H](CCN3CCC(c4noc5cc(Cl)ccc45)CC3)CC2)O1 [Example 40, N-trans (4-{2-[4-(6-Chloro-benzo[d]isoxazol-3-yl)-piperidin-1-yl]-ethyl}-cyclohexyl)-2-((S)-2,2-dimethyl-[1,3]dioxolan-4-yl)-acetamide]	6	25
CO[C@H]1CC[C@H](CC(=O)N[C@H]2CC[C@H](CCN3CCC(c4noc5cc(Cl)ccc45)CC3)CC2)C1 [Example 41, N-trans (4-{2-[4-(6-Chloro-benzo[d]isoxazol-3-yl)-piperidin-1-yl]-ethyl}-cyclohexyl)-2-((1S,3S)-3-methoxy-cyclopentyl)-acetamide]	10	14
COC1(C)CCC(CC(=O)N[C@H]2CC[C@H](CCN3CCC(c4noc5cc(Cl)ccc45)CC3)CC2)CC1 (stereo partly drawn) [Example 42, N-trans(4-{2-[4-(6-Chloro-benzo[d]isoxazol-3-yl)-piperidin-1-yl]-ethyl}-cyclohexyl)-2-(4-methoxy-4-methyl-cyclohexyl)-acetamide]	8	19
CO[C@]1(C)CC[C@@H](CC(=O)N[C@H]2CC[C@H](CCN3CCC(c4noc5cc(Cl)ccc45)CC3)CC2)CC1 [Example 42A, N-trans(4-{2-[4-(6-Chloro-benzo[d]isoxazol-3-yl)-piperidin-1-yl]-ethyl}-cyclohexyl)-2-(4-trans-methoxy-4-methyl-cyclohexyl)-acetamide]	6	16
CO[C@]1(C)CC[C@H](CC(=O)N[C@H]2CC[C@H](CCN3CCC(c4noc5cc(Cl)ccc45)CC3)CC2)CC1 [Example 42B, N-trans(4-{2-[4-(6-Chloro-benzo[d]isoxazol-3-yl)-piperidin-1-yl]-ethyl}-cyclohexyl)-2-(4-cis-methoxy-4-methyl-cyclohexyl)-acetamide]	4	14
COC(C)CC(=O)N[C@H]1CC[C@H](CCN2CCC(c3noc4cc(Cl)ccc34)CC2)CC1 (stereo partly drawn) [Example 43, N-trans(4-{2-[4-(6-Chloro-benzo[d]isoxazol-3-yl)-piperidin-1-yl]-ethyl}-cyclohexyl)-3-methoxy-butyramide]	10	13
CO[C@H](C)CC(=O)N[C@H]1CC[C@H](CCN2CCC(c3noc4cc(Cl)ccc34)CC2)CC1 [Example 43A, (R)—N-trans(4-{2-[4-(6-Chloro-benzo[d]isoxazol-3-yl)-piperidin-1-yl]-ethyl}-cyclohexyl)-3-methoxy-butyramide]	15	16
CO[C@@H](C)CC(=O)N[C@H]1CC[C@H](CCN2CCC(c3noc4cc(Cl)ccc34)CC2)CC1 [Example 43B, (S)—N-(4-{2-[4-(6-Chloro-benzo[d]isoxazol-3-yl)-piperidin-1-yl]-ethyl}-cyclohexyl)-3-methoxy-butyramide]	6	16
COC[C@H]1CC[C@H](CC(=O)N[C@H]2CC[C@H](CCN3CCC(c4noc5cc(Cl)ccc45)CC3)CC2)CC1 [Example 44, N-trans-(4-{2-[4-(6-Chloro-benzo[d]isoxazol-3-yl)-piperidin-1-yl]-ethyl}-cyclohexyl)-2-trans (4-methoxymethyl-cyclohexyl)-acetamide]	9	19
CC1(O)CCC(CC(=O)N[C@H]2CC[C@H](CCN3CCC(c4noc5cc(Cl)ccc45)CC3)CC2)CC1 (stereo partly drawn) [Example 45, N-trans(4-{2-[4-(6-Chloro-benzo[d]isoxazol-3-yl)-piperidin-1-yl]-ethyl}-cyclohexyl)-2-(4-hydroxy-4-methyl-cyclohexyl)-acetamide]	7	15
CC(=O)N[C@H]1CC[C@H](CCN2CCC(c3noc4cc(Cl)ccc34)CC2)CC1 [Example 46, N-trans(4-{2-[4-(6-Chloro-benzo[d]isoxazol-3-yl)-piperidin-1-yl]-ethyl}-cyclohexyl)-acetamide]	8.19	23.7
CCS(=O)(=O)N[C@H]1CC[C@H](CCN2CCC(c3noc4cc(F)ccc34)CC2)CC1 [Example 47, Ethanesulfonic acid (4-trans {2-[4-(6-fluoro-benzo[d]isoxazol-3-yl)-piperidin-1-yl]-ethyl}-cyclohexyl)-amide]	5.85	1.66
O=S(=O)(N[C@H]1CC[C@H](CCN2CCC(c3noc4cc(F)ccc34)CC2)CC1)c1ccc(Cl)cc1 [Example 48, 4-Chloro-N-trans (4-{2-[4-(6-fluoro-benzo[d]isoxazol-3-yl)-piperidin-1-yl]-ethyl}-cyclohexyl)-benzenesulfonamide]	5.87	5.13
COc1ccc(S(=O)(=O)N[C@H]2CC[C@H](CCN3CCC(c4noc5cc(F)ccc45)CC3)CC2)cc1 [Example 49, N-trans(4-{2-[4-(6-Fluoro-benzo[d]isoxazol-3-yl)-piperidin-1-yl]-ethyl}-cyclohexyl)-4-methoxy-benzenesulfonamide]	3.72	4.39
N#CCC(=O)N[C@H]1CC[C@H](CCN2CCC(c3noc4cc(Cl)ccc34)CC2)CC1 [Example 51, N-trans-(4-{2-[4-(6-Chloro-benzo[d]isoxazol-3-yl)-piperidin-1-yl]-ethyl}-cyclohexyl)-2-cyano-acetamide]	8.19	23.7
N#CCCC(=O)N[C@H]1CC[C@H](CCN2CCC(c3noc4cc(Cl)ccc34)CC2)CC1 [Example 52, N-trans-(4-{2-[4-(6-Chloro-benzo[d]isoxazol-3-yl)-piperidin-1-yl]-ethyl}-cyclohexyl)-3-cyano-propionamide]	8.77	15.6
O=C(C[C@H]1CCCO1)N[C@H]1CC[C@H](CCN2CCC(c3noc4cc(Cl)ccc34)CC2)CC1 [Example 53, N-trans-(4-{2-[4-(6-Chloro-benzo[d]isoxazol-3-yl)-piperidin-1-yl]-ethyl}-cyclohexyl)-2-(R)-tetrahydro-furan-2-yl-acetamide]	14.4	6.19
